Measurements from patent US8822688B2, “Imidazo[1,2-a]pyridine derivative” (Astellas Pharma Inc., priority 2010, dated 2014).
Where a name gives a salt, the structure may show the parent alone.

These molecules were tested against T1, human PDE4B2 (Homo sapiens, UniProt Q07343) (assay: Human PDE4B activity inhibition test (SPA, [3H]-cAMP)). Details: FLAG-tagged human PDE4B2 purified from COS-1 cells; 30 min at room temperature; read-out: IC50 (nM), human PDE4B inhibitory activity.
T1 construct: FLAG; made in house; host or cells: COS-1 cells (plasmid amplified in E. coli)
T1 sequence (Q07343 1-564 isoform Q07343-2): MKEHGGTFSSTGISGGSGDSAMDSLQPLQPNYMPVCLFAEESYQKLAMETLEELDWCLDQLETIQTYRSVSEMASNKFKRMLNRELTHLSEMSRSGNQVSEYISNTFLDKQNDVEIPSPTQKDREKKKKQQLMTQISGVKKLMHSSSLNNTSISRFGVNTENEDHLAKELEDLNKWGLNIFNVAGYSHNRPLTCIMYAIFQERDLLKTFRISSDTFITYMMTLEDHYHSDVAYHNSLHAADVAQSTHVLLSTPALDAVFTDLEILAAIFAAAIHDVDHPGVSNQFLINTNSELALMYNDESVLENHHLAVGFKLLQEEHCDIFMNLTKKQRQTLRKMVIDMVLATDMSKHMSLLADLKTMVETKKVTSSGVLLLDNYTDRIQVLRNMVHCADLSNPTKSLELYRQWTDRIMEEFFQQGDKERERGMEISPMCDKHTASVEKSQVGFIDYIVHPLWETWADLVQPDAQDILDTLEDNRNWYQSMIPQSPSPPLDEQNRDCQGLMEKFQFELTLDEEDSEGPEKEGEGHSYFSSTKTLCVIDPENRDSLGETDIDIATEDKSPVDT
Assay type: biochemical
Protocol: Test Method 1: Human PDE4B Inhibitory Activity
(1) Purification of Human PDE4B Enzyme
Plasmid DNA encoding FLAG-tagged human PDE4B2 was prepared and transfected into E. coli, and mass cultivation was performed. After extracting and purifying the plasmid DNA from the E. coli, the resultant was transfected into COS-1 cells and cultured. After the cells were homogenized, the expressed enzyme was purified using a FLAG peptide affinity column.
(2) Human PDE4B Activity Inhibition Test
1 μl/well of DMSO solution in which various concentrations of test compounds were dissolved and 74 μl/well of the purified enzyme diluted with a buffer were added to 96-well plates, and incubated at room temperature for 10 minutes. A buffer including 40 nM [^3H]-cAMP (Amersham, TRK559) and 4 μM cAMP were added at 25 μl/well and reacted for 30 minutes at room temperature. A suspension (18 mM ZnSO4, 5 mM IBMX, distilled water) of polylysin coated yttrium silicate SPA beads (Amersham, RPNQ0010) was added at 50 μl/well, and the reaction was stopped. After standing for 20 minutes at room temperature, the radioactivity was measured using a top count instrument and set as an index of enzyme activity. For evaluating the enzyme inhibitory activity of the test compound in each experiment, a value of IC50 was calculated with the radiation activity of the well of adding the vehicle (DMSO) and the enzyme as 0% inhibition and the radiation activity of the well of adding only the vehicle and not adding the enzyme as 100% inhibition.
Molecule COC1(CO)CCN(c2c3c(c(C(N)=O)c4nc5ccccc5n24)C2CCC3C2)CC1 (centres unmarked) [Example 14] has an IC50 of 3.3 nM.
Molecule CO[C@@]1(CO)CCN(c2c3c(c(C(N)=O)c4nc5ccccc5n24)CC(C)(C)C3)C[C@@H]1F (relative stereo) [Example 22, rel-11-[(3R,4S)-3-fluoro-4-(hydroxymethyl)-4-methoxypiperidin-1-yl]-2,2-dimethyl-2,3-dihydro-1H-cyclopenta[4,5]pyrido[1,2-a]benzimidazole-4-carboxamide] has an IC50 of 11.8 nM.
NC(=O)c1c2c(c(N3CCC4(CCNC4)CC3)n3c1nc1ccccc13)CCC2 [Example 26] gave an IC50 of 13 nM.
With COC1(CO)CCN(c2c3c(c(C(N)=O)c4nc5ccccc5n24)CCSC3)CC1 [Example 16] the IC50 was 15 nM.
In the case of CO[C@]1(CO)CCN(c2c3c(c(C(N)=O)c4nc5ccccc5n24)CCC3)C[C@H]1F (relative stereo) [Example 10], the IC50 is reported as 48 nM.
Molecule COC1(CO)CCN(c2c3c(c(C(N)=O)c4nc5ccccc5n24)CCC3)CC1 [Example 8] has an IC50 of 8 nM.
In the case of NC(=O)c1c2c(c(N3CCC4(CC3)CNC4)n3c1nc1ccccc13)CCC2 [Example 25, 11-(2,7-diazaspiro[3.5]non-7-yl)-2,3-dihydro-1H-cyclopenta[4,5]pyrido[1,2-a]benzimidazole-4-carboxamide dihydrochloride], the IC50 is reported as 8.2 nM.
N#CC1(CO)CCN(c2c3c(c(C(N)=O)c4nc5ccccc5n24)CCC3)CC1 [Example 5] gave an IC50 of 14 nM.
For COC1(CO)CCN(c2c3c(c(C(N)=O)c4nc5ccccc5n24)CC(C)(C)C3)CC1 [Example 12], the IC50 was 2.7 nM.
CC1(CO)CCN(c2c3c(c(C(N)=O)c4nc5ccccc5n24)CCC3)CC1 [Example 2] showed an IC50 of 13 nM.
Molecule COC1(CO)CCN(c2c3c(c(C(N)=O)c4nc5c(n24)CCCC5)CCC3)CC1 [Example 15] has an IC50 of 26 nM.
CC1(C)CCc2c(c(N3CCC(C)(CO)CC3)n3c(nc4ccccc43)c2C(N)=O)C1 [Example 4] gave an IC50 of 86 nM.
In the case of NC(=O)c1c2c(c(N3CCC4(CO)CC4C3)n3c1nc1ccccc13)CCC2 (centres unmarked) [Example 23, 11-[6-(hydroxymethyl)-3-azabicyclo[4.1.0]hept-3-yl]-2,3-dihydro-1H-cyclopenta[4,5]pyrido[1,2-a]benzimidazole-4-carboxamide hydrochloride], the IC50 is reported as 42 nM.
Molecule CC1(CN)CCN(c2c3c(c(C(N)=O)c4nc5ccccc5n24)CCC3)CC1 [Example 18, 11-[4-(aminomethyl)-4-methylpiperidin-1-yl]-2,3-dihydro-1H-cyclopenta[4,5]pyrido[1,2-a]benzimidazole-4-carboxamide dihydrochloride] has an IC50 of 18 nM.
